According to patent publication US7674810B2, “1,1-dioxo-1H-1Λ6-benzo[d]isothiazol-3-yl)-4-hydroxy-1,5-dihydro-pyrrol-2-one inhibitors of HCV polymerase” (Roche Palo Alto LLC, priority 2006, dated 2010):

Assays:
[1] = system: Renilla luciferase HCV replicon cells (2209-23); assay: Renilla luciferase Assay (HCV replicon); format: cell-based, HCV; human hepatoma Huh7 cells; details: 72 h; replicon cell line 2209-23, three days incubation; read-out: R. luciferase Activity IC50
HCV NS5B570n-BK = molecular target: T1, HCV NS5B570n-BK (Hepatitis C virus genotype 1b, UniProt P26663); assay: HCV NS5B RNA Polymerase Activity; format: biochemical, HCV BK strain; details: poly A:oligo U16, tritiated UTP, 2 h at 30° C.
T1 construct: histidine tag (N); made in house; host or cells: E. coli strain M15
Description: The enzymatic activity of HCV NS5B570n-BK is measured as incorporation of radiolabeled nucleotide monophosphates into acid insoluble RNA products. Unincorporated radiolabel substrate is removed by filtration and scintillant is added to the washed and dried filter plate containing radiolabeled RNA product. The light emitted by the scintillant is proportional to the amount of RNA product generated by NS5B570n-BK at the endpoint of the reaction.
The N-terminally histidine tagged HCV polymerase, derived from HCV BK strain, genotype 1b (NS5B570n-BK) contains a 21 amino acid deletion at the C-terminus relative to the full-length HCV polymerase and is purified from E. coli strain M15. The construct containing the coding sequence of HCV BK strain amino acid residues 2421-2999 (GenBank accession number M58335) downstream of a Taq promoter expression cassette was inserted into plasmid constructs. The plasmid constructs are transformed in E. coli and colonies are inoculated and grown overnight in 10 L of Terrific broth (Tartoff and Hobbs) supplemented with 100 μg/mL ampicillin at 37° C. Protein expression is induced by addition of 1 mM isopropyl-β-D -thiogalactopyranoside (IPTG), when optical densities reaches between 1.5 and 3.5 OD600 and the culture is then incubated for 16- to 18 h at 22° C. NS5B570n -BK is purified to homogeneity using a three step protocol including subsequent column chromatography on Ni-NTA, SP-Sepharose HP and Superdex 75 resins.
Each 50 μl enzymatic reaction contains 8:4 μg/mL poly A:oligo U16 (template:primer), 200 nM NS5B570n-BK enzyme, 2.1 μCi of tritiated UTP (Perkin Elmer catalog no. TRK -412; specific activity: 30 to 60 Ci/mmol; stock solution concentration from 7.5×10^−5 M to 20.6×10^−6 M), 1 μM ATP, CTP, and GTP, 40 mM Tris-HCl pH 8.0, 2 to 40 mM NaCl, 4 mM DTT (dithiothreitol), 4 mM MgCl2, and 5 μl of compound serial diluted in DMSO. Reaction mixtures are assembled in MADVN0B 96-well filter plates (Millipore Co.) and incubated for 2 h at 30° C. Reactions are stopped by addition of 10% (v/v) trichloroacetic acid and incubated for 40 min at 4° C. Reactions are filtered, washed with 6 reaction volumes of 10% (v/v) trichloroacetic acetic acid, 2 reaction volumes of 70% (v/v) ethanol, air dried, and 25 μl of scintillant (Microscint 20, Perkin-Elmer) is added to each reaction well.
The amount of light emitted from the scintillant is converted to counts per minute (CPM) on a Topcount® plate reader (Perkin-Elmer, Energy Range: Low, Efficiency Mode: Normal, Count Time: 1 min, Background Subtract: none, Cross talk reduction: Off).
Data is analyzed with GraphPad® Prism® and/or Microsoft® Excel®. The reaction in the absence of enzyme is used to determine the background signal, which is subtracted from the enzymatic reactions. Positive control reactions are performed in the absence of compound, from which the background corrected activity is set as 100% polymerase activity. All data is expressed as a percentage of the positive control. The compound concentration at which the enzyme-catalyzed rate of RNA synthesis is reduced by 50% (IC50) is calculated by fitting equation (i) to
[formula] the data, where “Y” corresponds to the relative enzyme activity (in %), “% Min” is the residual relative enzymatic activity at saturating compound concentration, “% Max” is the maximal relative enzymatic activity compared to positive control, X corresponds to the compound concentration, and “S” is the Hill coefficient (or slope). […]

T1 sequence (P26663 2421-2999): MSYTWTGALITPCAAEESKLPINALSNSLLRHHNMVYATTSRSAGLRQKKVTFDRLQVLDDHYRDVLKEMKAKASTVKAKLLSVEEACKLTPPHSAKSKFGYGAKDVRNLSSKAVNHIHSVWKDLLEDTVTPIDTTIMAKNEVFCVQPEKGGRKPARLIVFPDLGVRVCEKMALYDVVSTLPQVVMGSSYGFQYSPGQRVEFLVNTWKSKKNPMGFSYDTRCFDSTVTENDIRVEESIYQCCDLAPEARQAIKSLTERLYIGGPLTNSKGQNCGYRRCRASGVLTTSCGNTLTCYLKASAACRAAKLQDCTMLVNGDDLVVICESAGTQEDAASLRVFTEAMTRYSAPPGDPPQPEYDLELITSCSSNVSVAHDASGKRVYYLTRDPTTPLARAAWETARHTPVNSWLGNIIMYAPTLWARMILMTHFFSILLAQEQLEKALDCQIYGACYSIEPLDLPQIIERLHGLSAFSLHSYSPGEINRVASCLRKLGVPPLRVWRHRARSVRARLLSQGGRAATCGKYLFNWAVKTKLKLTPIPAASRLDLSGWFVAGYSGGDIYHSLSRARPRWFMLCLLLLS

Compound | melting point | IC50 [1] | IC50 (HCV NS5B570n-BK)
CC(C)(C)C1C(O)=C(C2=NS(=O)(=O)c3c(O)cccc32)C(=O)N1Cc1ccc(F)cc1 (stereo not drawn) [II-6, 5-tert-Butyl-1-(4-fluoro-benzyl)-4-hydroxy-3-(7-hydroxy-1,1-dioxo-1H-1λ^6-benzo[d]isothiazol-3-yl)-1,5-dihydro-pyrrol-2-one] | > 250 °C | 3260 nM | 52 nM
CN(Cc1cccc2c1S(=O)(=O)N=C2C1=C(O)C(C(C)(C)C)N(Cc2ccc(F)cc2)C1=O)S(C)(=O)=O (stereo not drawn) [II-35, N-{3-[5-tert-Butyl-1-(4-fluoro-benzyl)-4-hydroxy-2-oxo-2,5-dihydro-1H-pyrrol-3-yl]-1,1-dioxo-1H-1λ^6-benzo[d]isothiazol-7-ylmethyl}-N-methyl-methanesulfonamide] | 115 to 125 °C | 108 nM | 154 nM
CC(C)(C)[C@H]1C(O)=C(C2=NS(=O)(=O)c3c(OCS(C)(=O)=O)cccc32)C(=O)N1Cc1ccc(F)cc1 [II-81, (S)-5-tert-Butyl-1-(4-fluoro-benzyl)-4-hydroxy-3-(7-methanesulfonylmethoxy-1,1-dioxo-1H-1λ^6-benzo[d]isothiazol-3-yl)-1,5-dihydro-pyrrol-2-one] | 143 to 151 °C | 235 nM | –
CC(C)(C)[C@H]1C(O)=C(C2=NS(=O)(=O)c3c(CNS(C)(=O)=O)cccc32)C(=O)N1Cc1ccc(F)cc1 [II-23, N-{3-[(S)-5-tert-Butyl-1-(4-fluoro-benzyl)-4-hydroxy-2-oxo-2,5-dihydro-1H-pyrrol-3-yl]-1,1-dioxo-1H-1λ^6-benzo[d]isothiazol-7-ylmethyl}-methanesulfonamide] | 105 to 128 °C | 56 nM | 76 nM
Cc1cc(CN2C(=O)C(C3=NS(=O)(=O)c4c(CN(C)S(C)(=O)=O)cccc43)=C(O)[C@@H]2C(C)(C)C)ccc1F [II-77, N-{3-[(S)-5-tert-Butyl-1-(4-fluoro-3-methyl-benzyl)-4-hydroxy-2-oxo-2,5-dihydro-1H-pyrrol-3-yl]-1,1-dioxo-1H-1λ^6-benzo[d]isothiazol-7-ylmethyl}-N-methyl-methanesulfonamide] | – | 129 nM | –
CC(C)(C)[C@H]1C(O)=C(C2=NS(=O)(=O)c3c(CNS(=O)(=O)N4CCNCC4)cccc32)C(=O)N1Cc1ccc(F)cc1.O=C(O)C(F)(F)F [II-91, Piperazine-1-sulfonic acid {3-[(S)-5-tert-butyl-1-(4-fluoro-benzyl)-4-hydroxy-2-oxo-2,5-dihydro-1H-pyrrol-3-yl]-1,1-dioxo-1H-1λ^6-benzo[d]isothiazol-7-ylmethyl}-amide; compound with trifluoro-acetic acid] | 95 to 115 °C | 143 nM | –
CC(C)(C)[C@H]1C(O)=C(C2=NS(=O)(=O)c3c(CNS(N)(=O)=O)cccc32)C(=O)N1Cc1ccc(F)cc1 [II-41, Amino-sulfonic acid {3-[(S)-5-tert-butyl-1-(4-fluoro-benzyl)-4-hydroxy-2-oxo-2,5-dihydro-1H-pyrrol-3-yl]-1,1-dioxo-1H-1λ^6-benzo[d]isothiazol-7-ylmethyl}-amide] | – | 58 nM | –
Cc1cc(CN2C(=O)C(C3=NS(=O)(=O)c4c(CNS(C)(=O)=O)cccc43)=C(O)C2C(C)(C)C)ccc1F (stereo not drawn) [II-38, N-{3-[5-tert-Butyl-1-(4-fluoro-3-methyl-benzyl)-4-hydroxy-2-oxo-2,5-dihydro-1H-pyrrol-3-yl]-1,1-dioxo-1H-1λ^6-benzo[d]isothiazol-7-ylmethyl}-methanesulfonamide] | – | 35 nM | –
CC(C)(C)[C@H]1C(O)=C(C2=NS(=O)(=O)c3ccccc32)C(=O)N1Cc1ccc(F)c(Cl)c1 [II-31, (S)-5-tert-Butyl-1-(3-chloro-4-fluoro-benzyl)-3-(1,1-dioxo-1H-1λ^6-benzo[d]isothiazol-3-yl)-4-hydroxy-1,5-dihydro-pyrrol-2-one] | 81 to 96 °C | 288 nM | 208 nM
CN(C)S(=O)(=O)Oc1cccc2c1S(=O)(=O)N=C2C1=C(O)[C@H](C(C)(C)C)N(Cc2ccc(F)cc2)C1=O | 116 to 126 °C | – | –
O=C1C(C2=NS(=O)(=O)c3ccccc32)=C(O)[C@H](C2CCCCC2)N1Cc1ccc(F)cc1.[Na] | 235 to 238 °C | – | –
COc1cc(CN2C(=O)C(C3=NS(=O)(=O)c4c(CNS(C)(=O)=O)cccc43)=C(O)[C@@H]2C(C)(C)C)ccc1F | 121 to 126 °C | – | –
Cc1ccc(CN2C(=O)C(C3=NS(=O)(=O)c4ccccc43)=C(O)[C@@H]2C(C)(C)C)cc1 | 93 to 107 °C | – | –
CC(C)(C)[C@H]1C(O)=C(C2=NS(=O)(=O)c3c(CNS(=O)(=O)c4cccs4)cccc32)C(=O)N1Cc1ccc(F)cc1 | 175 to 192 °C | – | –
O=S1(=O)N=C(c2nc(NCC3CC3)c3ccccc3c2O)c2ccccc21 | 270 to 272 °C | – | –
CS(=O)(=O)NCc1cccc2c1S(=O)(=O)N=C2C1=C(O)[C@H](C2CCCCC2)N(Cc2ccc(F)cc2)C1=O | 130 to 137 °C | – | –
CN(c1ccc(F)cc1)c1nc(C2=NS(=O)(=O)c3ccccc32)c(O)c2ccccc12 | 215 to 217 °C | – | –
CNS(=O)(=O)COc1cccc2c1S(=O)(=O)N=C2C1=C(O)[C@H](C(C)(C)C)N(Cc2ccc(F)cc2)C1=O | 155 to 165 °C | – | –
CC(C)(C)[C@H]1C(O)=C(C2=NS(=O)(=O)c3ccccc32)C(=O)N1Cc1ccc(F)c(Br)c1 | 114 to 119 °C | – | –
Cc1cccc2c1S(=O)(=O)N=C2C1=C(O)[C@H](C(C)(C)C)N(Cc2ccc(F)cc2)C1=O | > 250 °C | – | –
Cc1cccc(-c2cccc3c2S(=O)(=O)N=C3c2nc(Cc3ccc(F)cc3)c3ccccc3c2O)c1 | 228 to 230 °C | – | –
CC(C)(C)[C@H]1C(O)=C(C2=NS(=O)(=O)c3ccccc32)C(=O)N1CC1CCC1 | 69 to 78 °C | – | –
CN(C)S(=O)(=O)N(C)Cc1cccc2c1S(=O)(=O)N=C2C1=C(O)[C@H](C(C)(C)C)N(Cc2ccc(F)cc2)C1=O | 109 to 115 °C | – | –
CC(C)(C)[C@H]1C(O)=C(C2=NS(=O)(=O)c3c(OCS(N)(=O)=O)cccc32)C(=O)N1Cc1ccc(F)cc1 [II-64, {3-[(S)-5-tert-Butyl-1-(4-fluoro-benzyl)-4-hydroxy-2-oxo-2,5-dihydro-1H-pyrrol-3-yl]-1,1-dioxo-1H-1λ^6-benzo[d]isothiazol-7-yloxy}-methanesulfonamide] | – | 228 nM | –
Cc1cc(CN2C(=O)C(C3=NS(=O)(=O)c4ccccc43)=C(O)[C@@H]2C(C)(C)C)ccc1F [II-15, (S)-5-tert-Butyl-3-(1,1-dioxo-1H-1λ^6-benzo[d]isothiazol-3-yl)-1-(4-fluoro-3-methyl-benzyl)-4-hydroxy-1,5-dihydro-pyrrol-2-one] | 105 to 111 °C | 125 nM | 138 nM
CC(C)(C)[C@H]1C(O)=C(C2=NS(=O)(=O)c3c(CNS(=O)(=O)c4ccccc4)cccc32)C(=O)N1Cc1ccc(F)cc1 | 96 to 112 °C | – | –
CC(C)(C)[C@H]1C(O)=C(C2=NS(=O)(=O)c3c(CNS(C)(=O)=O)cccc32)C(=O)N1CCC1CCCC1 | 74 to 86 °C | – | –
O=C1C(C2=NS(=O)(=O)c3ccccc32)=C(O)[C@H](Cc2ccccc2)N1Cc1ccc(F)cc1 | 85 to 92 °C | – | –
Cc1cc(CN2C(=O)C(C3=NS(=O)(=O)c4c(CNS(=O)(=O)N5CCNCC5)cccc43)=C(O)[C@@H]2C(C)(C)C)ccc1F.O=C(O)C(F)(F)F | 135 to 151 °C | – | –
CC(C)(C)[C@H]1C(O)=C(C2=NS(=O)(=O)c3c(CNCC(N)=O)cccc32)C(=O)N1Cc1ccc(F)cc1 | 118 to 124 °C | – | –
